Test results: ChEMBL document CHEMBL2069225, “Design, synthesis and molecular docking studies of sinomenine derivatives” (Bioorg Med Chem Lett, 2012)

System: RAW264.7
Test: Inhibition of NFkappaB in LPS-challenged mouse RAW264.7 cells assessed as ratio of NFkappaB transcriptional activity to thymidine kinase transcriptional activity at 100 uM incubated for 30 mins prior to LPS-challenge measured after 6 hrs by dual luciferase reporter gene assay (reference value: 5.18+/-0.98)
Format: cell-based

| Structure (SMILES) | Ratio |
| --- | --- |
| COC1=C[C@@H]2[C@@H]3Cc4ccc(OC)c(OCc5cn(Cc6ccccc6F)nn5)c4[C@]2(CCN3C)CC1=O | 3.13 |
| COC1=C[C@@H]2[C@@H]3Cc4ccc(OC)c(OCc5cn(Cc6ccc(C#N)cc6)nn5)c4[C@]2(CCN3C)CC1=O | 3.61 |
| COC1=C[C@@H]2[C@@H]3Cc4ccc(OC)c(OCc5cn(Cc6ccc(C)cc6)nn5)c4[C@]2(CCN3C)CC1=O | 3.37 |
| COC1=C[C@@H]2[C@@H]3Cc4ccc(OC)c(OCc5cn(Cc6ccc(Br)cc6)nn5)c4[C@]2(CCN3C)CC1=O | 4.19 |
| COC1=C[C@@H]2[C@@H]3Cc4ccc(OC)c(OCc5cn(Cc6ccc(F)cc6)nn5)c4[C@]2(CCN3C)CC1=O | 1.98 |
| COC1=C[C@@H]2[C@@H]3Cc4ccc(OC)c(OCc5cccc(C#N)c5)c4[C@]2(CCN3C)CC1=O | 4.28 |
| COC1=C[C@@H]2[C@@H]3Cc4ccc(OC)c(OCc5cn(Cc6ccc(C(C)(C)C)cc6)nn5)c4[C@]2(CCN3C)CC1=O | 3.26 |
| COC1=C[C@@H]2[C@@H]3Cc4ccc(OC)c(OCc5ccc(Br)cc5)c4[C@]2(CCN3C)CC1=O | 4.82 |
| COC1=C[C@@H]2[C@@H]3Cc4ccc(OC)c(OCc5ccc(F)cc5)c4[C@]2(CCN3C)CC1=O | 4.22 |
| COC1=C[C@@H]2[C@@H]3Cc4ccc(OC)c(OCc5ccccc5C)c4[C@]2(CCN3C)CC1=O | 4.91 |
| COC1=C[C@@H]2[C@@H]3Cc4ccc(OC)c(OCc5cn(Cc6cccc(C#N)c6)nn5)c4[C@]2(CCN3C)CC1=O | 2.86 |
| COC1=C[C@@H]2[C@@H]3Cc4ccc(OC)c(OCc5ccc(C)cc5)c4[C@]2(CCN3C)CC1=O | 5.24 |
| COC1=C[C@@H]2[C@@H]3Cc4ccc(OC)c(OCc5ccccc5C#N)c4[C@]2(CCN3C)CC1=O | 5.09 |
| COC1=C[C@@H]2[C@@H]3Cc4ccc(OC)c(OCc5cn(Cc6cccc(Cl)c6)nn5)c4[C@]2(CCN3C)CC1=O | 2.88 |
| COC1=C[C@@H]2[C@@H]3Cc4ccc(OC)c(OCc5cn(Cc6ccccc6C#N)nn5)c4[C@]2(CCN3C)CC1=O | 1.96 |
| COC1=C[C@@H]2[C@@H]3Cc4ccc(OC)c(OCc5ccc([N+](=O)[O-])cc5)c4[C@]2(CCN3C)CC1=O | 4.37 |
| COC1=C[C@@H]2[C@@H]3Cc4ccc(OC)c(OCc5cn(Cc6ccccc6Cl)nn5)c4[C@]2(CCN3C)CC1=O | 2.39 |
| COC1=C[C@@H]2[C@@H]3Cc4ccc(OC)c(OCc5cn(Cc6cccc(F)c6)nn5)c4[C@]2(CCN3C)CC1=O | 3.04 |
| COC1=C[C@@H]2[C@@H]3Cc4ccc(OC)c(OCc5cccc(F)c5)c4[C@]2(CCN3C)CC1=O | 4.53 |
| COC1=C[C@@H]2[C@@H]3Cc4ccc(OC)c(OCc5cn(Cc6cccc(C)c6)nn5)c4[C@]2(CCN3C)CC1=O | 2.98 |

| Structure (SMILES) | Ratio |
| --- | --- |
| COC1=C[C@@H]2[C@@H]3Cc4ccc(OC)c(OCc5cn(Cc6ccccc6[N+](=O)[O-])nn5)c4[C@]2(CCN3C)CC1=O | 2.32 |
| COC1=C[C@@H]2[C@@H]3Cc4ccc(OC)c(OCc5ccccc5Br)c4[C@]2(CCN3C)CC1=O | 5.03 |
| COC1=C[C@@H]2[C@@H]3Cc4ccc(OC)c(OCc5ccc(OC)cc5)c4[C@]2(CCN3C)CC1=O | 4.85 |
| COC1=C[C@@H]2[C@@H]3Cc4ccc(OC)c(OCc5cn(Cc6ccccc6)nn5)c4[C@]2(CCN3C)CC1=O | 1.8 |
| COC1=C[C@@H]2[C@@H]3Cc4ccc(OC)c(OCc5cccc(C)c5)c4[C@]2(CCN3C)CC1=O | 4.71 |
| COC1=C[C@@H]2[C@@H]3Cc4ccc(OC)c(OCc5cn(Cc6cccc([N+](=O)[O-])c6)nn5)c4[C@]2(CCN3C)CC1=O | 3.17 |
| COC1=C[C@@H]2[C@@H]3Cc4ccc(OC)c(OCc5cn(Cc6ccccc6Br)nn5)c4[C@]2(CCN3C)CC1=O | 2.08 |
| COC1=C[C@@H]2[C@@H]3Cc4ccc(OC)c(OCc5ccccc5[N+](=O)[O-])c4[C@]2(CCN3C)CC1=O | 4.7 |
| COC1=C[C@@H]2[C@@H]3Cc4ccc(OC)c(OCc5cn(Cc6ccc(OC)cc6)nn5)c4[C@]2(CCN3C)CC1=O | 3.12 |
| COC1=C[C@@H]2[C@@H]3Cc4ccc(OC)c(OCc5cn(Cc6ccc([N+](=O)[O-])cc6)nn5)c4[C@]2(CCN3C)CC1=O | 3.63 |
| COC1=C[C@@H]2[C@@H]3Cc4ccc(OC)c(OCc5cn(Cc6cccc(Br)c6)nn5)c4[C@]2(CCN3C)CC1=O | 2.46 |
| COC1=C[C@@H]2[C@@H]3Cc4ccc(OC)c(OCc5cccc(Br)c5)c4[C@]2(CCN3C)CC1=O | 4.51 |
| COC1=C[C@@H]2[C@@H]3Cc4ccc(OC)c(OCc5ccccc5F)c4[C@]2(CCN3C)CC1=O | 4.71 |
| COC1=C[C@@H]2[C@@H]3Cc4ccc(OC)c(OCc5cn(Cc6ccccc6C)nn5)c4[C@]2(CCN3C)CC1=O | 3 |
| COC1=C[C@@H]2[C@@H]3Cc4ccc(OC)c(OCc5cn(Cc6ccc(Cl)cc6Cl)nn5)c4[C@]2(CCN3C)CC1=O | 2.74 |
| COC1=C[C@@H]2[C@@H]3Cc4ccc(OC)c(OCc5cccc([N+](=O)[O-])c5)c4[C@]2(CCN3C)CC1=O | 4.18 |
| COC1=C[C@@H]2[C@@H]3Cc4ccc(OC)c(OCc5cn(Cc6c(Cl)cccc6Cl)nn5)c4[C@]2(CCN3C)CC1=O | 3.44 |
| COC1=C[C@@H]2[C@@H]3Cc4ccc(OC)c(OCc5cn(Cc6ccc(Cl)cc6)nn5)c4[C@]2(CCN3C)CC1=O | 2.22 |
| COC1=C[C@@H]2[C@@H]3Cc4ccc(OC)c(O)c4[C@]2(CCN3C)CC1=O | 4.41 |
